Source: ChEMBL document CHEMBL1201862, “PubChem BioAssay data set” (2004)
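96-well plates; 48 h exposure; 5 concentrations. Endpoints by linear interpolation between flanking doses. Not reached: highest tested concentration assigned. Here, GI50 denotes the concentration required for 50% inhibition of growth.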 Calls of active or inactive are those of the source. Cut-off read from the data, not from the text of the source: active = GI50 up to about 1.1 µM and inactive = higher.

Columns and labels:
Experiment in all cases: growth of human tumour cells (NCI), 48 h
[1] = system: M19-MEL
[2] = system: DMS-114
[3] = system: KM-20L2
[4] = system: HOP-18
[5] = system: LXFL 529
[6] = system: RXF 631
[7] = system: XF498
[8] = system: DLD-1
[9] = system: DMS-273

SMILES: O=[N+]([O-])c1ccc2nc(/C(=N/Nc3ccccc3)C(O)c3ccc(C(O)/C(=N\Nc4ccccc4)c4nc5ccc([N+](=O)[O-])cc5nc4O)cc3)cnc2c1 (configuration not stated)
- GI50 [1]: 58.9 µM (inactive)
- GI50 [2]: 11.2 µM (inactive)
- GI50 [3]: 11.5 µM (inactive)

SMILES: CC1(C)C(=O)C(=Cc2ccco2)C1=O
- GI50 [4]: > 100 µM (inactive)
- GI50 [5]: > 100 µM (inactive)
- GI50 [6]: > 100 µM (inactive)
- GI50 [1]: > 100 µM (inactive)
- GI50 [7]: > 100 µM (inactive)
- GI50 [2]: > 100 µM (inactive)
- GI50 [8]: > 100 µM (inactive)

SMILES: CC(C)(CN1CCCCC1)C(=O)/C=C/c1ccc(/C=C/C(=O)C(C)(C)CN2CCCCC2)cc1
- GI50 [4]: 1.28 µM (inactive)
- GI50 [5]: 0.262 µM (active)
- GI50 [1]: 0.982 µM (active)
- GI50 [7]: 0.344 µM (active)
- GI50 [2]: 0.701 µM (active)
- GI50 [3]: 0.644 µM (active)
- GI50 [9]: 0.361 µM (active)
- GI50 [8]: 0.142 µM (active)

SMILES: COc1cc([C@@H]2c3cc4c(cc3[C@@H](NC(=O)c3ccc([N+](=O)[O-])cc3)C3COC(=O)[C@@H]32)OCO4)cc(OC)c1O (some centres not stated)
- GI50 [4]: 67.8 µM (inactive)
- GI50 [5]: 3.13 µM (inactive)
- GI50 [6]: 1.02 µM (active)
- GI50 [1]: 1.25 µM (inactive)
- GI50 [7]: 0.166 µM (active)
- GI50 [2]: 0.31 µM (active)
- GI50 [3]: 0.615 µM (active)
- GI50 [9]: 0.111 µM (active)
- GI50 [8]: 1.38 µM (inactive)

SMILES: O=C(c1ccccc1)C1(Br)S(=O)(=O)OCCOS1(=O)=O
- GI50 [5]: > 100 µM (inactive)
- GI50 [1]: > 100 µM (inactive)
- GI50 [7]: > 100 µM (inactive)
- GI50 [2]: > 100 µM (inactive)
- GI50 [3]: > 100 µM (inactive)
- GI50 [9]: > 100 µM (inactive)
- GI50 [8]: > 100 µM (inactive)

SMILES: NC1=NN(c2ccccc2)C(=O)C1/C(=N\NC(=O)c1cc2ccccc2cc1O)C(=O)Nc1ccc(Cl)cc1 (configuration not stated)
- GI50 [4]: 25.4 µM (inactive)
- GI50 [5]: 22.2 µM (inactive)
- GI50 [6]: 49.1 µM (inactive)
- GI50 [1]: 26.4 µM (inactive)
- GI50 [7]: 34.6 µM (inactive)
- GI50 [2]: 17.9 µM (inactive)
- GI50 [3]: 32.7 µM (inactive)
- GI50 [9]: 20.2 µM (inactive)
- GI50 [8]: 21.6 µM (inactive)

SMILES: CN(C)c1n/c(=N/Cc2ccco2)ss1
- GI50 [4]: > 100 µM (inactive)
- GI50 [5]: 38.9 µM (inactive)
- GI50 [1]: 5.05 µM (inactive)
- GI50 [7]: > 100 µM (inactive)
- GI50 [2]: 3.33 µM (inactive)
- GI50 [3]: > 100 µM (inactive)
- GI50 [9]: 4.53 µM (inactive)
- GI50 [8]: 14.2 µM (inactive)

SMILES: CN(C)C(=S)/N=c1\ss/c(=N\c2ccccc2)n1-c1ccccc1
- GI50 [4]: 28.5 µM (inactive)
- GI50 [5]: 0.0542 µM (active)
- GI50 [6]: 29.9 µM (inactive)
- GI50 [1]: 24.7 µM (inactive)
- GI50 [2]: 1.44 µM (inactive)
- GI50 [9]: 16.6 µM (inactive)
- GI50 [8]: 28.4 µM (inactive)

SMILES: O=C(NCCNCCO)c1cccc2ccc(-c3ccccc3)nc12
- GI50 [4]: 19 µM (inactive)
- GI50 [6]: 1.83 µM (inactive)
- GI50 [1]: 4.89 µM (inactive)
- GI50 [2]: 7.52 µM (inactive)
- GI50 [9]: 3.86 µM (inactive)
- GI50 [8]: 3.41 µM (inactive)

SMILES: O=C(NC1C2CC3CC(C2)CC1C3)/C(Cl)=C1/Sc2ccccc2NC1=O (configuration not stated)
- GI50 [4]: > 100 µM (inactive)
- GI50 [5]: 42.5 µM (inactive)
- GI50 [1]: > 91.6 µM (inactive)
- GI50 [7]: > 100 µM (inactive)
- GI50 [2]: > 65.5 µM (inactive)
- GI50 [3]: > 100 µM (inactive)
- GI50 [9]: > 49 µM (inactive)
- GI50 [8]: > 100 µM (inactive)

SMILES: OC1OCC(COc2cc(Cl)c(Cl)cc2Cl)OC1O (configuration not stated)
- GI50 [4]: 25.6 µM (inactive)
- GI50 [5]: 46.8 µM (inactive)
- GI50 [6]: 32.7 µM (inactive)
- GI50 [1]: 66.1 µM (inactive)
- GI50 [2]: 28.4 µM (inactive)
- GI50 [3]: > 100 µM (inactive)
- GI50 [9]: 36.4 µM (inactive)
- GI50 [8]: 44.2 µM (inactive)

SMILES: COc1ccc(N2C(=O)C3CC(c4ccc(Br)cc4)c4c([nH]c5ccccc45)C3C2=O)cc1 (configuration not stated)
- GI50 [4]: 7.82 µM (inactive)
- GI50 [5]: 4.07 µM (inactive)
- GI50 [1]: 10.2 µM (inactive)
- GI50 [7]: 13 µM (inactive)
- GI50 [2]: 6.93 µM (inactive)
- GI50 [3]: 9.46 µM (inactive)
- GI50 [9]: 6.41 µM (inactive)
- GI50 [8]: 10.1 µM (inactive)

SMILES: CC1CC[C@]2(C(=O)O)CCC3(C)C(=CCC4[C@@]5(C)CC[C@H](OS(=O)(=O)c6ccccc6)C(C)(C)C5CC[C@]43C)[C@@H]2[C@H]1C (some centres not stated)
- GI50 [4]: 37.9 µM (inactive)
- GI50 [5]: 69.8 µM (inactive)
- GI50 [6]: > 100 µM (inactive)
- GI50 [1]: > 100 µM (inactive)
- GI50 [7]: 36.4 µM (inactive)
- GI50 [2]: 39.2 µM (inactive)
- GI50 [9]: > 100 µM (inactive)
- GI50 [8]: 82 µM (inactive)

SMILES: COc1cc(/C=C/c2ccc(OC)c(O)c2)cc(OC)c1
- GI50 [5]: 6.03 µM (inactive)
- GI50 [1]: 6.41 µM (inactive)
- GI50 [7]: 3.37 µM (inactive)
- GI50 [2]: 3.33 µM (inactive)
- GI50 [3]: 20.4 µM (inactive)
- GI50 [9]: 15.2 µM (inactive)
- GI50 [8]: 5.52 µM (inactive)

SMILES: COc1ccc(/C=C\c2cc(OC)c(OC)c(OC)c2)cc1
- GI50 [4]: 0.973 µM (active)
- GI50 [5]: 0.000507 µM (active)
- GI50 [6]: < 0.01 µM (active)
- GI50 [1]: < 0.01 µM (active)
- GI50 [7]: 0.000741 µM (active)
- GI50 [2]: 0.0013 µM (active)
- GI50 [3]: 0.000428 µM (active)
- GI50 [9]: 0.000273 µM (active)
- GI50 [8]: 0.0004 µM (active)
